For the test, the target named is T1, Taste receptor type 2 member 8 (Homo sapiens, UniProt Q9NYW2).
T1 sequence (Q9NYW2 whole entry): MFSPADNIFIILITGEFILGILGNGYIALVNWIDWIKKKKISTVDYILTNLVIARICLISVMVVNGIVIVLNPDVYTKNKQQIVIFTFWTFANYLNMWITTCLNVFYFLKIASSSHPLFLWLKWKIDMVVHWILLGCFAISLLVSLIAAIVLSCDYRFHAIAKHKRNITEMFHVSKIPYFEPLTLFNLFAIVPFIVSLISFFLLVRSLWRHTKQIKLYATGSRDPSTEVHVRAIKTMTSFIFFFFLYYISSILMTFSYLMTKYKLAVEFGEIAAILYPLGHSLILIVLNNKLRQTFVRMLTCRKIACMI
Briefly: Fluorescence Polarization Assays: In another embodiment, Fluorescence Polarization ("FP") based assays may be used to detect and monitor ligand binding. Fluorescence polarization is a versatile laboratory technique for measuring equilibrium binding, nucleic acid hybridization, and enzymatic activity. […] Generally, this technique can be used to measure polarization values of fluorophores from low picomolar to micromolar levels.

pIC50: −log10 of the molar value.

As to `Cc1noc(C)c1Cn1cc(N2CCCN(Cc3ccccc3)C2=O)cn1`, the pIC50 was 5.78.

For the origin of these results see ChEMBL document CHEMBL3886188, “Identification of human T2R receptors that respond to bitter compounds that elicit the bitter taste in compositions, and the use thereof in assays to identify compounds that inhibit (block) bitter taste in compositions and use thereof” (2016).
